From ChEMBL document CHEMBL4004888, “New derivatives of quinoline-4-carboxylic acid with antiplasmodial activity” (Bioorg Med Chem, 2017)

Key:
L6 = experiment: Cytotoxicity against rat L6 cells after 70 hrs by alamar blue staining based fluorometric assay; assay type: cell-based; conditions: L6, 70 h
Plasmodium falciparum [1] = experiment: Antiplasmodial activity against erythrocytic stage of chloroquine-sensitive Plasmodium falciparum NF54 assessed as reduction in [3H]hypoxanthine incorporation after 48 hrs by liquid scintillation counting method; assay type: functional
[2] = Selectivity index, ratio of IC50 for rat L6 cells to IC50 for erythrocytic stage of chloroquine-sensitive Plasmodium falciparum NF54; assay type: toxicity; conditions: read-out: Ratio IC50
[3] = Selectivity index, ratio of IC50 for rat L6 cells to IC50 for erythrocytic stage of chloroquine/pyrimethamine-resistant Plasmodium falciparum K1; assay type: toxicity; conditions: L6 cells versus erythrocytic stage Plasmodium falciparum K1, read-out: Ratio IC50
Plasmodium falciparum [4] = experiment: Antiplasmodial activity against erythrocytic stage of chloroquine/pyrimethamine-resistant Plasmodium falciparum K1 assessed as reduction in [3H]hypoxanthine incorporation after 48 hrs by liquid scintillation counting method; assay type: functional
Plasmodium berghei [5] = experiment: Antiplasmodial activity against erythrocytic stage of GFP-fused Plasmodium berghei ANKA infected in NMRI mouse assessed as mouse survival days at 50 mg/kg, ip for 4 days measured up to 30 days post infection (reference value: 4 day); assay type: functional
Plasmodium berghei [6] = experiment: Antiplasmodial activity against erythrocytic stage of GFP-fused Plasmodium berghei ANKA infected in NMRI mouse assessed as reduction in parasitaemia at 50 mg/kg, ip for 4 days measured at 24 hrs post last dose by FACS analysis relative to control; assay type: functional; set-up: scale not given: the % may be the effect or the level left
Plasmodium berghei [7] = experiment: Antiplasmodial activity against erythrocytic stage of GFP-fused Plasmodium berghei ANKA infected in NMRI mouse assessed as mouse survival days at 10 mg/kg, ip for 4 days measured up to 30 days post infection (reference value: 4 day); assay type: functional

Row | Compound | IC50 (Plasmodium falciparum [1]) [µM] | IC50 (L6; read-out: IC50) [µM] | selectivity ratio [2] | selectivity ratio [3] | IC50 (Plasmodium falciparum [4]) [µM] | MSD (Plasmodium berghei [5]) [days] | Activity (Plasmodium berghei [6]) [%] | MSD (Plasmodium berghei [7]) [days] | IC50 (L6) [µM]
1 | O=C(Nc1ccc([N+](=O)[O-])cc1)c1cc(-c2ccc(CN3CCOCC3)cc2)nc2ccc(F)cc12 | 0.21 | 13.8 | 65.7 |  |  |  |  |  | 
2 | CN(C)c1ccc(NC(=O)c2cc(-c3ccc(CN4CCOCC4)cc3)nc3ccc(F)cc23)cc1 | 1.09 | 12.4 | 11.4 |  |  |  |  |  | 
3 | O=C(c1cc(-c2ccc(CN3CCOCC3)cc2)nc2ccc(F)cc12)N1CCN(C(=O)c2cc(-c3ccc(CN4CCOCC4)cc3)nc3ccc(F)cc23)CC1 | 6.73 | 128 | 19 |  |  |  |  |  | 
4 | O=C(NCCN1CCN(c2ccccc2)CC1)c1cc(-c2ccc(CN3CCOCC3)cc2)nc2ccc(F)cc12 | 0.01 | 3.94 | 394 | 563 | 0.007 | 4 | 17.1 |  | 
5 | Fc1ccc2nc(-c3ccc(CN4CCOCC4)cc3)cc(CN3CCNCC3)c2c1 | 2.19 | 14.5 | 6.62 |  |  |  |  |  | 
6 | CCN(CC)C(=O)c1cc(-c2ccc(CN3CCOCC3)cc2)nc2ccc(F)cc12 | 12.5 | 121 | 9.68 |  |  |  |  |  | 
7 | O=C(NCCN1CCNCC1)c1cc(-c2ccc(CN3CCOCC3)cc2)nc2ccc(F)cc12 | 0.53 | 54.5 | 103 |  |  |  |  |  | 
8 | CC(C)(C)OC(=O)N1CCN(CCNC(=O)c2cc(-c3ccc(CN4CCOCC4)cc3)nc3ccc(F)cc23)CC1 | 0.00021 | 13.5 | 64300 | 15500 | 0.00087 | 8.3 | 98.1 |  | 
9 | C[C@@H]1CC[C@H]2[C@@H](C)C(=O)O[C@@H]3O[C@@]4(C)CC[C@@H]1[C@]32OO4 [ARTEMISININ] |  |  |  | 70300 | 0.0064 |  |  |  | 
10 | O=C(NCCN1CCCC1)c1cc(-c2ccc(CN3CCOCC3)cc2)nc2ccc(F)cc12 [CABAMIQUINE] | 0.00013 | 28.5 | 219000 | 129000 | 0.00022 |  |  |  | 
11 | CCN(CC)CCCC(C)Nc1ccnc2cc(Cl)ccc12 (stereo unspecified) [CHLOROQUINE] |  |  |  |  |  |  |  | 20 | 
12 | COc1cc([C@@H]2c3cc4c(cc3[C@H](O)[C@H]3COC(=O)[C@H]23)OCO4)cc(OC)c1OC [PODOFILOX] |  |  |  |  |  |  |  |  | 0.012

Continued, in another order:

Row | IC50 (Plasmodium falciparum [1]) [µM] | Compound | IC50 (L6; read-out: IC50) [µM] | selectivity ratio [2] | selectivity ratio [3] | IC50 (Plasmodium falciparum [4]) [µM] | MSD (Plasmodium berghei [5]) [days] | Activity (Plasmodium berghei [6]) [%] | MSD (Plasmodium berghei [7]) [days] | IC50 (L6) [µM]
13 | 7.78 | O=C(c1cc(-c2ccc(CN3CCOCC3)cc2)nc2ccc(F)cc12)N1CCNCC1 | 105 | 13.5 |  |  |  |  |  | 
14 | 1.76 | O=C(Nc1ccccc1)c1cc(-c2ccc(CN3CCOCC3)cc2)nc2ccc(F)cc12 | 17.7 | 10.1 |  |  |  |  |  | 
15 | 13.8 | CC(C)(C)OC(=O)N1CCN(C(=O)c2cc(-c3ccc(CN4CCOCC4)cc3)nc3ccc(F)cc23)CC1 | 29.6 | 2.14 |  |  |  |  |  | 
16 | 4.92 | O=C(c1cc(-c2ccc(CN3CCOCC3)cc2)nc2ccc(F)cc12)N1CCN(c2ccccc2)CC1 | 24.6 | 5 |  |  |  |  |  | 
17 | 13.3 | Fc1ccc2nc(-c3ccc(CN4CCOCC4)cc3)cc(CN3CCN(c4ccccc4)CC3)c2c1 | 31.9 | 2.4 |  |  |  |  |  | 
18 | 49.3 | N=C(N)N1CCN(C(=O)c2cc(-c3ccc(CN4CCOCC4)cc3)nc3ccc(F)cc23)CC1 | 210 | 4.26 |  |  |  |  |  | 
19 | 5.08 | CN1CCN(C(=O)c2cc(-c3ccc(CN4CCOCC4)cc3)nc3ccc(F)cc23)CC1 | 135 | 26.6 |  |  |  |  |  | 
20 | 0.59 | COc1ccc(NC(=O)c2cc(-c3ccc(CN4CCOCC4)cc3)nc3ccc(F)cc23)cc1 | 6.77 | 11.5 |  |  |  |  |  | 
21 | 1.98 | CN1CCN(Cc2cc(-c3ccc(CN4CCOCC4)cc3)nc3ccc(F)cc23)CC1 | 17.7 | 8.94 |  |  |  |  |  | 
22 | 1.09 | CN1CCN(CCNC(=O)c2cc(-c3ccc(CN4CCOCC4)cc3)nc3ccc(F)cc23)CC1 | 82 | 75.2 |  |  |  |  |  | 
